# Results reported in ChEMBL document CHEMBL1152560, “Substituted 2-arylbenzothiazoles as kinase inhibitors: hit-to-lead optimization” (Bioorg Med Chem, 2009).
# Experiments:
# [1] = target: 3-phosphoinositide-dependent protein kinase 1 (Homo sapiens) (UniProt O15530); test: Residual activity of PDK1 at 10 uM by microplate scintillation counting
# [2] = target: T1, Ephrin type-B receptor 3 (Homo sapiens) (UniProt P54753); test: Residual activity of EPHB3 at 0.1 uM by microplate scintillation counting
# T1 sequence (whole entry): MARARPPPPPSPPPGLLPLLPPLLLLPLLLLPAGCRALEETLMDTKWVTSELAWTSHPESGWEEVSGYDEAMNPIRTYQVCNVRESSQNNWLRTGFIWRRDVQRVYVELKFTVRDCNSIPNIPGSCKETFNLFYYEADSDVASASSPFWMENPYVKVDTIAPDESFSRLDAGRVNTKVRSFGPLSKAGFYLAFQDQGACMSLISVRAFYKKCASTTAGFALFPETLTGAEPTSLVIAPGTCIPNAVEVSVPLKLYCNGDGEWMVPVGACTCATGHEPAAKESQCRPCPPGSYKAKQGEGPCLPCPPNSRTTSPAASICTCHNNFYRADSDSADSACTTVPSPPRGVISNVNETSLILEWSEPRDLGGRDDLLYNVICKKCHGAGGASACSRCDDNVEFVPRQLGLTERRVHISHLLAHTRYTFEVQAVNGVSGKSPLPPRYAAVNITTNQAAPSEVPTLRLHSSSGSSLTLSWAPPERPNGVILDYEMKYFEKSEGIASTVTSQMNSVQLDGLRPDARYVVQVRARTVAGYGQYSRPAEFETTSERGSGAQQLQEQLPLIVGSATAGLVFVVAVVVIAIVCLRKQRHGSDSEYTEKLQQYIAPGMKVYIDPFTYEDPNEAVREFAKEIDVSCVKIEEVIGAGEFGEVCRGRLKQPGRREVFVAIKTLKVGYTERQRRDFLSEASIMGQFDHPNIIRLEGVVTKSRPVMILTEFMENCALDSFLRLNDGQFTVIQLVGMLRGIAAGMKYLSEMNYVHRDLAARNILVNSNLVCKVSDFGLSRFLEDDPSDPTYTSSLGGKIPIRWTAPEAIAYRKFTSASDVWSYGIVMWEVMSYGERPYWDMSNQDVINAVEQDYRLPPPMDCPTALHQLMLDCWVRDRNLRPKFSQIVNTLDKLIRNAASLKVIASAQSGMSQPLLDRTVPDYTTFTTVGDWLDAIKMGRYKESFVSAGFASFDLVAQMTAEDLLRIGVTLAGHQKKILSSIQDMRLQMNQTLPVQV
# [3] = target: Proto-oncogene tyrosine-protein kinase ROS (Homo sapiens) (UniProt P08922); test: Residual activity of ROS at 10 uM by microplate scintillation counting
# Proto-oncogene tyrosine-protein kinase ROS (Homo sapiens), sequence (P08922 whole entry): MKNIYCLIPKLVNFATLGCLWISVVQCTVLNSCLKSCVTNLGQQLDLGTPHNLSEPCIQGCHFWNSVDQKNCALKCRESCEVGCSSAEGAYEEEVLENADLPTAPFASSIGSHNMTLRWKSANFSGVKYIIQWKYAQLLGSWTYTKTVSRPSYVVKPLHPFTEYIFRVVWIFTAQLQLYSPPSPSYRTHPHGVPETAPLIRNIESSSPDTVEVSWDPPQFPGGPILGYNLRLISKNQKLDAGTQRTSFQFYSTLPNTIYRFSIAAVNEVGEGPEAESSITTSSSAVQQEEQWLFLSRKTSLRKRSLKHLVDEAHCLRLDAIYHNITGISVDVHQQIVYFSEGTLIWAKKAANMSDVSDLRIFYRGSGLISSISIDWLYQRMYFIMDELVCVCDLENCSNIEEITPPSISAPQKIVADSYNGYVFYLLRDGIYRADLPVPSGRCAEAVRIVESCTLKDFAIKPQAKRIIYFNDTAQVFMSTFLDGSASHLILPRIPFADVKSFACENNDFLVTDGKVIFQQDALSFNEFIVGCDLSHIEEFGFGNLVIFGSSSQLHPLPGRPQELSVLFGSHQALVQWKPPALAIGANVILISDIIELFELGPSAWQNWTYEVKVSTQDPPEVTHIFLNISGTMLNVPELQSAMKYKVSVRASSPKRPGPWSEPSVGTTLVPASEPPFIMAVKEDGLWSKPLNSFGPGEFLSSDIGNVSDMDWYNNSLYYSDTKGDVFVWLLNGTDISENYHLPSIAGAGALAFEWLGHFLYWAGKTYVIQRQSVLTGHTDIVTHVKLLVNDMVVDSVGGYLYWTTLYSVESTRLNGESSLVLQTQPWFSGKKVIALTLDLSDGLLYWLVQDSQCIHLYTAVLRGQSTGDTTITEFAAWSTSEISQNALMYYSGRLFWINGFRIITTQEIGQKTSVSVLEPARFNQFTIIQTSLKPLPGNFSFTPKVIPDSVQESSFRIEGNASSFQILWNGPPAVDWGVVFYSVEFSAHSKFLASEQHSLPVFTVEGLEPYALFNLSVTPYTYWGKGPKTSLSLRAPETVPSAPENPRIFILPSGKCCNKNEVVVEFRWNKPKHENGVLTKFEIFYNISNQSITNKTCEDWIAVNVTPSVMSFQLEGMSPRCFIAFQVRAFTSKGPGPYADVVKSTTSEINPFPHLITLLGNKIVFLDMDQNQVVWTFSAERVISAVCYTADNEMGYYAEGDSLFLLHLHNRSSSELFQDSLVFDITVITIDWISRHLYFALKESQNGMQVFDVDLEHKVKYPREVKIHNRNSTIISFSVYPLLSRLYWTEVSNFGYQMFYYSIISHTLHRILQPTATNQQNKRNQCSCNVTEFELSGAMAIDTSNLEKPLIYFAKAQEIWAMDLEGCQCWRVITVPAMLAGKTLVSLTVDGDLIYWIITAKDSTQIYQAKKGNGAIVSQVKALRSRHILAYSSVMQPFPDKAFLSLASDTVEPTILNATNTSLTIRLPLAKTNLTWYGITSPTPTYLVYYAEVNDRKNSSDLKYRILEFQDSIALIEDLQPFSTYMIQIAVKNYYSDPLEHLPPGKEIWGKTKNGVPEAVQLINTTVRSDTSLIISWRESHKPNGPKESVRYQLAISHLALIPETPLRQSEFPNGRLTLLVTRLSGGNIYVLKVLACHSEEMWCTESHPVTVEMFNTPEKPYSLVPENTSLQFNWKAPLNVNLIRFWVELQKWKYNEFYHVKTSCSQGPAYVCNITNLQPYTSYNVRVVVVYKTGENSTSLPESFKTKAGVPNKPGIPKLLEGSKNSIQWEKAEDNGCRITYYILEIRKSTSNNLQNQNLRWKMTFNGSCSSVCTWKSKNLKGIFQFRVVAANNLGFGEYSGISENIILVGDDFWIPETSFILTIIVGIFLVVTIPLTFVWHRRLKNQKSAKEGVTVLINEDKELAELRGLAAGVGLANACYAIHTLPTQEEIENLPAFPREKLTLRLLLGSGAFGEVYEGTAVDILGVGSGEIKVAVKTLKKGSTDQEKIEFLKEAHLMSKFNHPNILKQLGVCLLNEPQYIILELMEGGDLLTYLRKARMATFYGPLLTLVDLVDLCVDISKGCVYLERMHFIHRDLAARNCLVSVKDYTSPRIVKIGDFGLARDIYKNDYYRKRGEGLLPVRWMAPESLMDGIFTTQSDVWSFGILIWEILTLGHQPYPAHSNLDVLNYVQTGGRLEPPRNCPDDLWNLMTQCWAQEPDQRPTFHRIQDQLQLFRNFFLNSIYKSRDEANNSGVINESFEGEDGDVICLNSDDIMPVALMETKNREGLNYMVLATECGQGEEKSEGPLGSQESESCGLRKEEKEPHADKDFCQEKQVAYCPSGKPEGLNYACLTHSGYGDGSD
# [4] = target: 3-phosphoinositide-dependent protein kinase 1 (Homo sapiens) (UniProt O15530); test: Residual activity of PDK1 at 1 uM by microplate scintillation counting
# [5] = target: T2, Eukaryotic elongation factor 2 kinase (Homo sapiens) (UniProt O00418); test: Residual activity of EEF2K at 0.1 uM by microplate scintillation counting
# T2 sequence (whole entry): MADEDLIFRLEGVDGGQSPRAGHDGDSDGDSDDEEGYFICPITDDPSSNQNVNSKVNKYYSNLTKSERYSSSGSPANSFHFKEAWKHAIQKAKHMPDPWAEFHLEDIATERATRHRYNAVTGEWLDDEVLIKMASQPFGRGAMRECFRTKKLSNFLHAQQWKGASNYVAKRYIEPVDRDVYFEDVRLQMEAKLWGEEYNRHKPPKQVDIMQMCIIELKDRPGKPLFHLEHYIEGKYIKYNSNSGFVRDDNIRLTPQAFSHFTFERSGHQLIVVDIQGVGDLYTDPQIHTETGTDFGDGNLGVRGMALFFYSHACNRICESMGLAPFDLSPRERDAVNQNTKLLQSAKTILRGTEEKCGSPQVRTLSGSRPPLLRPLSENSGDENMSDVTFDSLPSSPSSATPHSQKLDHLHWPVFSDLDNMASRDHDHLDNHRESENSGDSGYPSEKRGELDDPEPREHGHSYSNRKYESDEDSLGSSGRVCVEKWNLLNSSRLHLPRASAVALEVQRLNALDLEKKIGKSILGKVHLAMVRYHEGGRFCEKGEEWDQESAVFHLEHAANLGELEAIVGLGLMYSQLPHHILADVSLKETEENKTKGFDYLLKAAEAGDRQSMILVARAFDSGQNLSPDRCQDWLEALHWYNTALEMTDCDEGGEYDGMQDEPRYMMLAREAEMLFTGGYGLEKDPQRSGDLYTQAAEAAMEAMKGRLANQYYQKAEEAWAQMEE
# [6] = target: Serine/threonine-protein kinase PLK1 (Homo sapiens) (UniProt P53350); test: Residual activity of PLK1 at 0.1 uM by microplate scintillation counting
# Serine/threonine-protein kinase PLK1 (Homo sapiens), sequence (P53350 whole entry): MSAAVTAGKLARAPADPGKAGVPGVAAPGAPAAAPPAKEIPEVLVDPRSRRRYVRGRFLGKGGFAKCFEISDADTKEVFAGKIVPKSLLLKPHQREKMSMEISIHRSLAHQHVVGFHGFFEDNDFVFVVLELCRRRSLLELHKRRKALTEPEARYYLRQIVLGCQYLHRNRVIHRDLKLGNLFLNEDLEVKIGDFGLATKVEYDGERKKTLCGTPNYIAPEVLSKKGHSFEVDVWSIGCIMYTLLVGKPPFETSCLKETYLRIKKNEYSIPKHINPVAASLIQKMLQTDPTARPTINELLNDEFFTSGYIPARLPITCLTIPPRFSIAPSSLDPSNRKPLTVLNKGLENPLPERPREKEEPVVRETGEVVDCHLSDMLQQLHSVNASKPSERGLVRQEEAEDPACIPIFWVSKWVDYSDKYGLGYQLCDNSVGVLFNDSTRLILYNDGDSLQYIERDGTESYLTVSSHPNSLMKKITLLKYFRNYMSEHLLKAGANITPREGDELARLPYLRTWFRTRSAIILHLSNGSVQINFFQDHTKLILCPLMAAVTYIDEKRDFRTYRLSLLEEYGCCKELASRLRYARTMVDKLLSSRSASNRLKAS
# [7] = target: SRSF protein kinase 3 (Homo sapiens) (UniProt Q9UPE1); test: Residual activity of STK23 at 10 uM by microplate scintillation counting
# [8] = target: Glycogen synthase kinase-3 alpha (Homo sapiens) (UniProt P49840); test: Residual activity of GSK3alpha at 10 uM by microplate scintillation counting
# [9] = target: Protein kinase C gamma type (Homo sapiens) (UniProt P05129); test: Residual activity of PKCgamma at 1 uM by microplate scintillation counting
# [10] = target: Cyclin-dependent kinase 5/CDK5 activator 1 (Homo sapiens) (UniProt Q00535+Q15078); test: Residual activity of CDK5/p35NCK at 0.1 uM by microplate scintillation counting; assay type: protein-complex assay
# Cyclin-dependent kinase 5/CDK5 activator 1 (Homo sapiens), sequence (Q00535 whole entry): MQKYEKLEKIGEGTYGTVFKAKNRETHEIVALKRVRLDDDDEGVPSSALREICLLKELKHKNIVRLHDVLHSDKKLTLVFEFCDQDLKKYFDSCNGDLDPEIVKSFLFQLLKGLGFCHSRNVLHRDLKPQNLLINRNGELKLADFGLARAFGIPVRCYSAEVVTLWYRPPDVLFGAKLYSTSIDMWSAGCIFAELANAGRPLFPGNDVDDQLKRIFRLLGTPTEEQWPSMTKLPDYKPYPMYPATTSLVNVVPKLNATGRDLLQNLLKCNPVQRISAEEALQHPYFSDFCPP
# Cyclin-dependent kinase 5/CDK5 activator 1 (Homo sapiens), sequence (Q15078 99-307 partner limits assumed): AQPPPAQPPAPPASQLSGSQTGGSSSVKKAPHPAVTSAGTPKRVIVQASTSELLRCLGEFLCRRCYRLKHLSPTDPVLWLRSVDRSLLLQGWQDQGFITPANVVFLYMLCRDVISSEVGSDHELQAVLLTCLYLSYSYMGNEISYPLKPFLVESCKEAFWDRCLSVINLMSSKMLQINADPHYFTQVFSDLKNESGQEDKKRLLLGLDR
# [11] = target: Tyrosine-protein kinase ABL1 (Homo sapiens) (UniProt P00519); test: Residual activity of wild type ABL1 at 10 uM by microplate scintillation counting
# [12] = target: Eukaryotic translation initiation factor 2-alpha kinase 1 (Homo sapiens) (UniProt Q9BQI3); test: Residual activity of HRI at 0.1 uM by microplate scintillation counting
# Eukaryotic translation initiation factor 2-alpha kinase 1 (Homo sapiens), sequence (Q9BQI3 whole entry): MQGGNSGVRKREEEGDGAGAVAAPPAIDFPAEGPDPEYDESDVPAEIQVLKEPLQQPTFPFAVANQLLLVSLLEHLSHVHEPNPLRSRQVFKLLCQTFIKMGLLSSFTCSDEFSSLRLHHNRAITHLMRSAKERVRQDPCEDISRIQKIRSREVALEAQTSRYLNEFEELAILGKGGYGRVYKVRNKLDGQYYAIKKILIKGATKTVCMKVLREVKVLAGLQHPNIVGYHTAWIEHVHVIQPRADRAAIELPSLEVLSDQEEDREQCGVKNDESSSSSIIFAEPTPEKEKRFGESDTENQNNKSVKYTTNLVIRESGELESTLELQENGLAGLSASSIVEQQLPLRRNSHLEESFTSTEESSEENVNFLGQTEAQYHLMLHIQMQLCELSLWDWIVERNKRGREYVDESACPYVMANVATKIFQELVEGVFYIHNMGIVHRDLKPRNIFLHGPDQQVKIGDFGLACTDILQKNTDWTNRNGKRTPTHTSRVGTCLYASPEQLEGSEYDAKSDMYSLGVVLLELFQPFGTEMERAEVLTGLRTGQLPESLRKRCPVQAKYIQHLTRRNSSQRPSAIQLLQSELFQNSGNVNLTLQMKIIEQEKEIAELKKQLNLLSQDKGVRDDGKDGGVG
# [13] = target: Macrophage colony-stimulating factor 1 receptor (Homo sapiens) (UniProt P07333); test: Residual activity of CSF1R at 1 uM by microplate scintillation counting
# Macrophage colony-stimulating factor 1 receptor (Homo sapiens), sequence (P07333 whole entry): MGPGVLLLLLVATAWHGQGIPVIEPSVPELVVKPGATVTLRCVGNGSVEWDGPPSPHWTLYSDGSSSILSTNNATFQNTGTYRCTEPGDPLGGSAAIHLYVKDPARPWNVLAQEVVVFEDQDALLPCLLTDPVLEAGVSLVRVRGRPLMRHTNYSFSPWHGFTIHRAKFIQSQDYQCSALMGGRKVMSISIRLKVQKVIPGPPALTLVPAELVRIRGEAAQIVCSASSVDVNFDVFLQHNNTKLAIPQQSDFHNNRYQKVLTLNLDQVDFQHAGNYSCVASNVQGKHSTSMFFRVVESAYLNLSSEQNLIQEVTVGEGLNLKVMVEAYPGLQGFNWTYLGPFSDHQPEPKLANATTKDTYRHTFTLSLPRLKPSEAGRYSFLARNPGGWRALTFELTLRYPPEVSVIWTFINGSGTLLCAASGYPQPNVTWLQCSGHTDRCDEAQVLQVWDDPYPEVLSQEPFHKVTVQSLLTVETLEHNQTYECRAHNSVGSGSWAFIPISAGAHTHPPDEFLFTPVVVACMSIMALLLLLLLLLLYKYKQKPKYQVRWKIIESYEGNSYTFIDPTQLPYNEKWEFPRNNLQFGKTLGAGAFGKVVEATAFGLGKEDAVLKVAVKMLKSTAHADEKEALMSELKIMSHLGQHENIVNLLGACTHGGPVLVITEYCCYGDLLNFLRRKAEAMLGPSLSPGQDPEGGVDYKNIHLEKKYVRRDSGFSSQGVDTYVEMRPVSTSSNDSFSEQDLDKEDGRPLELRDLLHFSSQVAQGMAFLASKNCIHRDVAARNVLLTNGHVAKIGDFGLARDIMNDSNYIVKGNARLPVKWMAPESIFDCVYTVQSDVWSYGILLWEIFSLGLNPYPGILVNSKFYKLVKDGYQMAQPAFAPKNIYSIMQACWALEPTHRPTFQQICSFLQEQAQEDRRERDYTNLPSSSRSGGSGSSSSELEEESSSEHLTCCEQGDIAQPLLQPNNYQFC
residual activity [1] [%],residual activity [2] [%],residual activity [3] [%],residual activity [4] [%],residual activity [5] [%],residual activity [6] [%],residual activity [7] [%],residual activity [8] [%],residual activity [9] [%],residual activity [10] [%],residual activity [11] [%],residual activity [12] [%],residual activity [13] [%],SMILES
66,102,54,102,91,91,113,62,102,94,41,92,112,COc1cc2c(Oc3ccc(-c4nc5ccccc5s4)cc3)ncnc2cc1OCCCN1CCCC1
61,117,38,108,88,98,111,27,117,83,26,98,105,COc1cc2c(Oc3ccc(-c4nc5ccccc5s4)cc3F)ncnc2cc1OCCCN1CCN(C)CC1
67,112,47,101,92,94,110,28,117,93,28,113,118,COc1cc2c(Oc3ccc(-c4nc5ccccc5s4)cc3)ncnc2cc1OCCCN1CCN(C)CC1
